In patent US20170333391A1, “METHOD FOR DELAYING THE ONSET OF PULMONARY FIBROSIS OR TREATING PULMONARY FIBROSIS” (EVERFRONT BIOTECH INC., priority 2016, published 2017):

Columns and labels:
BMP-7 protein = BMP-7 protein expression in TGF-β1-induced NHLF, western blotting (2-2); type: cell-based, human; conditions: TGF-β1-only control group = 1
Method: (§1) Normal Human lung fibroblasts (NHLF) were seeded into 6 cm culture dishes at a density of 2×10^5 cells/dish, comprising a control group and six experimental groups (7 dishes in total). The cells were cultured until the next day, and then the mediums were removed. Each group was respectively treated under the following conditions to conduct follow-up experiments: • (1) Positive control group: cells were cultured in a FGM-2 medium containing 1% serum and TGF-β1 (5 ng/ml) for 36 hours; • (2) Group I: cells were firstly cultured in a FGM-2 medium containing 1% serum and TGF-β1 (5 ng/ml) for 12 hours, and then compound (1) was added into the medium to provide a final concentration of 15 μg/ml; thereafter, the cells were cultured for another 24 hours; • (3) Group II: cells were firstly cultured in a FGM-2 medium containing 1% serum and TGF-β1 (5 ng/ml) for 12 hours, and then compound (1) was added into the medium to provide a final concentration of 25 μg/ml; thereafter, the cells were cultured for another 24 hours; • (4) Group III: cells were firstly cultured in a FGM-2 medium containing 1% serum and TGF-β1 (5 ng/ml) for 12 hours, and then compound (1) was added into the medium to provide a final concentration of 35 μg/ml; thereafter, the cells were cultured for another 24 hours; • (5) Group IV: cells were firstly cultured in a FGM-2 medium containing 1% serum and TGF-β1 (5 ng/ml) for 12 hours, and then the Pirfenidone was added into the medium to provide a final concentration of 100 μg/ml; thereafter, the cells were cultured for another 24 hours; • (6) Group V: cells were firstly cultured in a FGM-2 medium containing 1% serum and TGF-β1 (5 ng/ml) for 12 hours, and then the Pirfenidone was added into the medium to provide a final concentration of 250 μg/ml; thereafter, the cells were cultured for another 24 hours; and • (7) Group VI: cells were firstly cultured in a FGM-2 medium containing 1% serum and TGF-β1 (5 ng/ml) for 12 hours, and then the Pirfenidone was added into the medium to provide a final concentration of 500 μg/ml; thereafter, the cells were cultured for another 24 hours.
(§2) Thereafter, the proteins in the cells of each group were extracted, and the expressions of type I collagen, BMP-7 protein and TGF-β protein in the NHLF cells of each group were measured with western blotting. The results of the control group served as the basis for calculating the relative expression levels of the other groups.

TGF-β protein = TGF-β protein expression in TGF-β1-induced NHLF, western blotting (2-2); type: cell-based, human; conditions: TGF-β1-only control group = 1
Method: as §1, §2

[1] = tested on: C57B/L6 mice injected with Bleomycin sulfate (inducer of pulmonary fibrosis); experiment: Pulmonary fibrosis score (Ashcroft, 0 to 8) in Bleomycin sulfate mice; type: in vivo; conditions: compared to oil group
Method: (§3) 24 C57B/L6 mice (age: four weeks) were separated into four groups (6 mice in each group). […]
After completing the measurement of the pulmonary function in Example 6, the mice were sacrificed. […] One of the two groups was preserved at −20° C. for the follow-up experiment, and the other group was analyzed by hematoxylin-sosin stain (H&E stain). […]

IL-6 = IL-6 mRNA in mouse pulmonary tissue, RT-PCR; type: in vivo, mice; conditions: Bleomycin sulfate, normal control = 1, oil group = 3.26
From the text: as §3
Then, for another portion of ground samples of each group, the total RNAs were extracted using an RNeasy Mini Kit. The QuantiTect Reverse Transcription Kit was used to conduct reverse transcription on the total RNA to obtain the cDNA. […]

[2] = Group I: TGF-β1 5 ng/ml 12 h, then compound (1) 15 μg/ml 24 h
[3] = Group II: TGF-β1 5 ng/ml 12 h, then compound (1) 25 μg/ml 24 h
[4] = Group III: TGF-β1 5 ng/ml 12 h, then compound (1) 35 μg/ml 24 h

CCCC=C1OC(=O)c2ccccc21 [compound (1)]
Relative expression level (fold) BMP-7 protein (BMP-7 protein; [2]): 1.57 fold | Relative expression level (fold) BMP-7 protein (BMP-7 protein; [3]): 1.80 fold | Relative expression level (fold) BMP-7 protein (BMP-7 protein; [4]): 1.68 fold | Relative expression level (fold) TGF-β protein (TGF-β protein; [2]): 0.81 fold | Relative expression level (fold) TGF-β protein (TGF-β protein; [3]): 0.77 fold | Relative expression level (fold) TGF-β protein (TGF-β protein; [4]): 0.58 fold | pulmonary fibrosis score ([1]; High-dose group, compound (1) 50 mg/kg orally daily 30 days): significantly decreased | pulmonary fibrosis score ([1]; Low-dose group, compound (1) 10 mg/kg orally daily 30 days): significantly decreased | Relative expression level (fold) IL-6 (IL-6; High-dose group: mRNA in pulmonary tissue, compound (1) 50 mg/kg-body weight orally every day for 30 days): 0.53 fold | Relative expression level (fold) IL-6 (IL-6; Low-dose group: mRNA in pulmonary tissue, compound (1) 10 mg/kg-body weight orally every day for 30 days): 1.36 fold
